Values quoted from earlier work as cited in patent US6541263B2, “Determination of corticosteroids in human plasma using micromass LC/MS/MS” (Euro-Celtique, S.A. Luxembourg, priority 2001, dated 2003).

System: eosinophils
Details: IL-5-mediated survival

## C[C@]12CCC(=O)C=C1CC[C@@H]1[C@@H]2[C@@H](O)C[C@@]2(C)[C@H]1CC[C@]2(O)C(=O)CO [hydrocortisone]
  inhibition of IL-5-mediated eosinophil survival: dose-dependent inhibition
